{"source": "patent US11479534B2", "about": "“Compound and use thereof in medicine” (Changsha Hooz Bioscience And Technology Co., Ltd, priority 2018, dated 2022)", "key": {"UHRF1": {"biological_target": "T1, UHRF1 (Homo sapiens, UniProt Q96T88)", "T1 construct": "reduces the protein level of the oncogene UHRF1 in prostate cancer cells in a dose-dependent manner; endogenous in cells; host or cells: DU145", "T1 sequence (Q96T88 1-793)": "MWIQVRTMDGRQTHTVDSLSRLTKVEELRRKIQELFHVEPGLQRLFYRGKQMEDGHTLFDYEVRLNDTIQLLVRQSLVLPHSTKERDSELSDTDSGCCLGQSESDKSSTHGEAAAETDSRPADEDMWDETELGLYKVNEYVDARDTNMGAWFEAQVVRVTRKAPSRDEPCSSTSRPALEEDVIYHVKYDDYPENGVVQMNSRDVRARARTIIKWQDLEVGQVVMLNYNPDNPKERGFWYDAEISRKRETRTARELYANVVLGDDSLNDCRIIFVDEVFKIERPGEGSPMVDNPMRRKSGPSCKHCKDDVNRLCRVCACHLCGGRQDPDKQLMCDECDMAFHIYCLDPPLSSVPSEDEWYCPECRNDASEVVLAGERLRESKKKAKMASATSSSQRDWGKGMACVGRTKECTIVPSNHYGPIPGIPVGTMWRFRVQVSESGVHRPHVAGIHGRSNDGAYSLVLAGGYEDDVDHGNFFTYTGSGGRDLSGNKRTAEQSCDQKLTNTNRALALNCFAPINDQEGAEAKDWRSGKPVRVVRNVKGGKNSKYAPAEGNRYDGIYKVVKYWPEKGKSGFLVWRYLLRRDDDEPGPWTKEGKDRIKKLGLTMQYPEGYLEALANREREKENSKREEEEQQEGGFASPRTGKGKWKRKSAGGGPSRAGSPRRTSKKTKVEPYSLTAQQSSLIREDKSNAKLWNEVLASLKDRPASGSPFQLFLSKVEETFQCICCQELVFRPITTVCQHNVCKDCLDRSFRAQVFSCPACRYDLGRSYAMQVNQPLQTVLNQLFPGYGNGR", "assay": "Western blot of UHRF1 protein level in treated DU145 cells", "assay_type": "cell-based", "procedure": "(§1) Culturing a same amount of prostate cancer cell line DU145 in each well of a 6-well culture dish, allowing cell adhesion for 24 hours, and then using different doses of said compound M3 (50, 100 and 150 μM) to treat the prostate cancer cell DU145, and using said compound M1 as a control drug. After 24 hours, harvest the cells for Western blot to detect the protein levels of UHRF1, histone H3 and acetylated histone H3. […] The results of this experiment verifies that the compound M3 of the present invention specifically dual-targeting UHRF1 and HDAC molecules."}, "[1]": {"tested_on": "prostate cancer cells PC3", "assay": "MTS cell survival assay, PC3", "assay_type": "cell-based", "procedure": "(§2) Culturing prostate cancer cells PC3 and DU145 cells, as well as non-cancerous normal cells (5000 cells/well) in a 96-well cell culture dish, and then using different doses of said compound M3 to treat prostate cancer cells PC3 and DU145 cells and normal […] cells RWPE1 and HPrEC. After 72 hours, detecting the survival rate of the cells by MTS method, and calculate […] of said compound M3 for different cells using software."}, "DNMT1": {"tested_on": "DNMT1", "assay": "Western blot of DNMT1 protein expression in treated DU145 cells", "assay_type": "cell-based", "settings": "24 hours, Western blot (FIG. 1)"}, "HDAC1 [2]": {"biological_target": "T2, HDAC1 (Homo sapiens, UniProt Q13547)", "T2 construct": "endogenous in cells; host or cells: DU145", "T2 sequence (Q13547 whole entry)": "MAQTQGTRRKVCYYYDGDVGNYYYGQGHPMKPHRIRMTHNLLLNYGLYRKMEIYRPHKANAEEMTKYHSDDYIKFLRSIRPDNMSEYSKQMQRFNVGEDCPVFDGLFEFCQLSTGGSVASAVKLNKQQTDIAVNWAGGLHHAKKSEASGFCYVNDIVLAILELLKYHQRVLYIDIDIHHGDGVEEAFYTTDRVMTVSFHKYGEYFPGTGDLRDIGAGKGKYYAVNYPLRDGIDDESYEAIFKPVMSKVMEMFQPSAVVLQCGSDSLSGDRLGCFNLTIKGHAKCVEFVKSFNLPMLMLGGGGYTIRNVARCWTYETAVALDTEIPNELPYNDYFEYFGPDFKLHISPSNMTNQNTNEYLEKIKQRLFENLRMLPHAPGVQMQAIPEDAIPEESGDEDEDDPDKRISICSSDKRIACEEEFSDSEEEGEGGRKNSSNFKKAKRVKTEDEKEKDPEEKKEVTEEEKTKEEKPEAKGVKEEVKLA", "assay": "Western blot of acetylated histone H3 and total histone H3 in treated DU145 cells (HDAC targeting)", "assay_type": "cell-based", "settings": "FIG. 6, M2 and M3 under the same dose", "procedure": "as §1"}, "HDAC1 [3]": {"tested_on": "HDAC1", "assay": "Western blot of acetylated histone H3 and total histone H3 in treated DU145 cells (HDAC targeting)", "assay_type": "cell-based", "settings": "DU145 cells, 50, 100 and 150 μM, 24 hours, Western blot (FIG. 1)", "procedure": "as §1"}, "[4]": {"tested_on": "prostate cancer cells DU145", "assay": "MTS cell survival assay, DU145", "assay_type": "cell-based", "settings": "Homo sapiens, DU-145, DU145, 72 hours, read-out: half inhibitory dose (IC50)", "procedure": "as §2"}, "RWPE1 cells": {"tested_on": "RWPE1 cells", "assay": "MTS cell survival assay, RWPE1", "assay_type": "cell-based", "settings": "Homo sapiens, RWPE-1, RWPE1 normal cells, 72 hours", "procedure": "as §2"}, "HPrEC cells": {"tested_on": "HPrEC cells", "assay": "MTS cell survival assay, HPrEC", "assay_type": "cell-based", "settings": "HPrEC normal cells, 72 hours", "procedure": "as §2"}, "[5]": {"assay": "Safety in nude mouse: weight and serum biochemical indicators", "assay_type": "in vivo", "settings": "200 mg/kg/day intragastrically, 4 weeks", "procedure": "Intragastrically administering the compound M3 of the present invention (200 mg/kg/day) in an immunodeficient nude mouse once a day, 5 days a week with 2 days rest in between, for a total of 4 weeks of continuous treatment; using solvent DMSO as a control. Weight of the nude mouse is measured before treatment and every 3 days after the treatment begins. When the experiment ends, extract blood from the nude mouse, separate blood serum, and detect the changes in biochemical indicators, including: aspartate aminotransferase (AST) and alanine aminotransferase (ALT) indicative of liver function, blood urea nitrogen (BUN) and creatinine (CREA) indicative of kidney function, and creatine kinase (CK) and l lactate dehydrogenase (LDH-L) indicative of heart function, to evaluate the effect of […] on heart, liver and kidney functions."}, "[6]": {"tested_on": "prostate cancer DU145 cells xenograft tumor", "assay": "Subcutaneous xenograft model of prostate cancer DU145 cells in nude mouse", "assay_type": "in vivo", "settings": "100 mg/kg/day intragastrically, 5 days a week, 4 weeks; compared with control compound M1", "procedure": "Establishing a subcutaneous xenograft model of prostate cancer DU145 cells (1×106) in immunodeficient mouse by subcutaneous injection, allowing around 2-3 weeks for the xenograft to grow into a size of around 250 mm3, and then intragastrically administering the compound M3 of the present invention (100 mg/kg/day) once a day, 5 days a week with 2 days rest in between, for a total of 4 weeks of continuous treatment. Said […] and solvent DMSO are used as controls. Tumor size is measured before treatment and every 3 days after treatment begins. The size of the tumor is calculated according to the formula V=length×width 2/2."}}}
{"smiles": "O=C(CCCCCCC(=O)Nc1c[nH]c(=O)[nH]c1=O)NO", "note": "[M3, N1-(carbonyl-5-aminouracil)-N8-octylhydroxyamide]", "values": [{"measurement": "protein level of UHRF1", "setting": "UHRF1; DU145 cells, 50, 100 and 150 μM, 24 hours, Western blot (FIG. 1)", "result": "specifically reduces the protein level of the oncogene UHRF1 in prostate cancer cells in a dose-dependent manner"}, {"measurement": "protein level of UHRF1 target", "setting": "UHRF1; FIG. 6, M2 and M3 under the same dose", "result": "significantly reduces the protein stability of UHRF1"}, {"measurement": "IC50", "setting": "[1]; PC3, 72 hours, MTS, read-out: half inhibitory dose (IC50)", "result": "< 50", "unit": "µM"}, {"measurement": "selectivity for killing prostate cancer cells", "setting": "[1]; PC3 and DU145 compared with RWPE1 and HPrEC", "result": "good selectivity for killing prostate cancer cells"}, {"measurement": "protein expression of DNMT1", "setting": "DNMT1", "result": "significantly reduced"}, {"measurement": "activity of HDAC1 (acetylated histone H3)", "setting": "HDAC1 [2]", "result": "significantly inhibits the activity of HDAC1"}, {"measurement": "acetylation level of histone H3", "setting": "HDAC1 [3]", "result": "causes an increase in acetylation level of histone H3"}, {"measurement": "total histone H3 level", "setting": "HDAC1 [3]", "result": "not affected"}, {"measurement": "IC50", "setting": "[4]", "result": "< 50", "unit": "µM"}, {"measurement": "IC50", "setting": "RWPE1 cells", "result": "> 300", "unit": "µM"}, {"measurement": "IC50", "setting": "HPrEC cells", "result": "> 300", "unit": "µM"}, {"measurement": "weight of the nude mouse", "setting": "[5]", "result": "does not significantly reduce the weight"}, {"measurement": "heart function (CK, LDH-L)", "setting": "[5]; blood serum", "result": "no significant effect"}, {"measurement": "kidney function (BUN, CREA)", "setting": "[5]; blood serum", "result": "no significant effect"}, {"measurement": "liver function (AST, ALT)", "setting": "[5]; blood serum", "result": "no significant effect"}, {"measurement": "tumor growth", "setting": "[6]", "result": "significantly reduces tumor growth compared with the control compound M1"}]}
